Assay: Intraperitoneal administration to intact rats: accumulation of metals in liver and kidney tissues
Type: in vivo
Settings: day 1 and day 7 after drug withdrawal, 3750 μg of zinc per kg intraperitoneally, 7 injections
Procedure: Animals are placed in cages, 4 per cage, with free access to food/water. […] Administration is performed every other day, in the amount of 7 injections per animal (intraperitoneal method of drug administration). […] After the last injection, a half of the animals are maintained on hunger (for 12 hours) with free access to water. Upon expiration of this time period, the animals are taken out of the experiment. The second half of the animals continues to have free access to food/water for a further 7 days. On day 6 after the last injection, the animals are maintained on hunger (for 12 hours) with free access to water. Upon expiration of this time period, the animals are taken out of the experiment.
The total kidney, liver and muscle homogenates were prepared as follows. Organ excision and homogenization were carried out at a temperature of 1-4° C. […] The volume of the used buffer in ml was 5 times larger than the mass of isolated organs in grams. The isolated liver was perfused with chilled saline (0.9% NaCl) via the portal vein using a syringe. The minced liver was transferred to a homogenizer with a finely ground Teflon pestle and homogenized in chilled buffer. An isolated pair of kidneys was perfused with chilled saline, released from adipose tissue and minced with scissors. […]

CC(=O)[O-].CC(=O)[O-].[Zn+2] [Zn acetate, Zinc acetate]
Zinc level in liver and kidney tissues: significantly increased
